In ChEMBL document CHEMBL1142528 (J Med Chem, 2008):

Columns and labels:
[1] = biological target: 5-hydroxytryptamine receptor 2A (Homo sapiens, UniProt P28223); test: Displacement of [3H]ketanserin from 5HT2A receptor expressed in NIH3T3 cells; type: cell-based
[2] = biological target: 5-hydroxytryptamine receptor 2A (Homo sapiens, UniProt P28223, F340L); test: Displacement of [3H]ketanserein from 5HT2A receptor F340L mutant expressed in NIH3T3 cells; type: cell-based
D(2) dopamine receptor = D(2) dopamine receptor (Homo sapiens, UniProt P14416); test: Displacement of [3H]spiperone from dopamine D2 receptor
D(2) dopamine receptor, sequence (P14416 whole entry): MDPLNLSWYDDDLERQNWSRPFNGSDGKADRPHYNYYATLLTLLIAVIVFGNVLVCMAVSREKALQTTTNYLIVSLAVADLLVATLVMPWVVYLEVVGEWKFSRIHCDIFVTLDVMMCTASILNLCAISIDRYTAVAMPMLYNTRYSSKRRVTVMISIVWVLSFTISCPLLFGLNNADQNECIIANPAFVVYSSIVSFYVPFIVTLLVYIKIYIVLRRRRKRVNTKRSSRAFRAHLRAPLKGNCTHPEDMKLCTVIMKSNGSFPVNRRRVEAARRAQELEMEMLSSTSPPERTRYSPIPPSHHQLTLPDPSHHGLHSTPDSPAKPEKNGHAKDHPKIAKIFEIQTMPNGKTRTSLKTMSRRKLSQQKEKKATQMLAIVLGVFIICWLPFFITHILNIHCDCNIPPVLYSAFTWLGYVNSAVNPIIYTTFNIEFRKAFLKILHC

[3] = biological target: Sodium-dependent serotonin transporter (Homo sapiens, UniProt P31645); test: Displacement of [3H]paroxitine from SERT
Sodium-dependent serotonin transporter, sequence (P31645 whole entry): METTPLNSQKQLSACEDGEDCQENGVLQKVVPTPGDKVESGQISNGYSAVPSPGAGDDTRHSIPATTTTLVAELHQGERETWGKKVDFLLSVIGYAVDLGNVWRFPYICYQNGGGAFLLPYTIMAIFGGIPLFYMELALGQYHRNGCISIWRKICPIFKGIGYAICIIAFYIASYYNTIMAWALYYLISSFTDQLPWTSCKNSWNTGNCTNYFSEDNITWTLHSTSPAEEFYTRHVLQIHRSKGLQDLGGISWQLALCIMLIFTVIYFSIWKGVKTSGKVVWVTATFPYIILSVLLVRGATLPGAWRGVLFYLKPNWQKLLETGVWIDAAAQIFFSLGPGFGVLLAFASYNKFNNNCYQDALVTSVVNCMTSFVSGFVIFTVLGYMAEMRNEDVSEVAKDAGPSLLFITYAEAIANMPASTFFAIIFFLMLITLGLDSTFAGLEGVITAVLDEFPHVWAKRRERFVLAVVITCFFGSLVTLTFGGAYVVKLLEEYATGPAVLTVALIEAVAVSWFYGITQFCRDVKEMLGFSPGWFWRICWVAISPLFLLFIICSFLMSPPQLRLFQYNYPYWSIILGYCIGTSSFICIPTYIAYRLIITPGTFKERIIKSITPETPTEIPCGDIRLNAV

[4] = biological target: Sodium-dependent noradrenaline transporter (Homo sapiens, UniProt P23975); test: Displacement of [3H]nisoxitine from NET
Sodium-dependent noradrenaline transporter, sequence (P23975 whole entry): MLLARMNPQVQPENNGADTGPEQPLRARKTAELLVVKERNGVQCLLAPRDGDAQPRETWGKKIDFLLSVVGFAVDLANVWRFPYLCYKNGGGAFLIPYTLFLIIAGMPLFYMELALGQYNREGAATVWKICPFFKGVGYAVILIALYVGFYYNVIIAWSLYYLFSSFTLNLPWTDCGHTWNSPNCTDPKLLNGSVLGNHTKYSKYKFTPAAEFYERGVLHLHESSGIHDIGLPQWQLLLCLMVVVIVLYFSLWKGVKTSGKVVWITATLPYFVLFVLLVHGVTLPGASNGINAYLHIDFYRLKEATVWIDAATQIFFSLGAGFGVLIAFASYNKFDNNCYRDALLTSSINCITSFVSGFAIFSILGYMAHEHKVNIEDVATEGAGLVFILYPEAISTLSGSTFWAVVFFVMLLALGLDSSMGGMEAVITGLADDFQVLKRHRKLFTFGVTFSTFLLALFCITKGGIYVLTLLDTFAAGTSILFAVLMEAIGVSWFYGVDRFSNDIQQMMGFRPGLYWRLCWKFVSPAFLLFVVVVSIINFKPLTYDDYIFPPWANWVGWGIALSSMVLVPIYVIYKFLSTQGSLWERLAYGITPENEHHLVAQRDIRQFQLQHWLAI

[5] = biological target: T1, 5-hydroxytryptamine receptor 2C (Homo sapiens, UniProt P28335); test: Displacement of [3H]mesulergine from 5HT2C receptor
T1 sequence (P28335 whole entry): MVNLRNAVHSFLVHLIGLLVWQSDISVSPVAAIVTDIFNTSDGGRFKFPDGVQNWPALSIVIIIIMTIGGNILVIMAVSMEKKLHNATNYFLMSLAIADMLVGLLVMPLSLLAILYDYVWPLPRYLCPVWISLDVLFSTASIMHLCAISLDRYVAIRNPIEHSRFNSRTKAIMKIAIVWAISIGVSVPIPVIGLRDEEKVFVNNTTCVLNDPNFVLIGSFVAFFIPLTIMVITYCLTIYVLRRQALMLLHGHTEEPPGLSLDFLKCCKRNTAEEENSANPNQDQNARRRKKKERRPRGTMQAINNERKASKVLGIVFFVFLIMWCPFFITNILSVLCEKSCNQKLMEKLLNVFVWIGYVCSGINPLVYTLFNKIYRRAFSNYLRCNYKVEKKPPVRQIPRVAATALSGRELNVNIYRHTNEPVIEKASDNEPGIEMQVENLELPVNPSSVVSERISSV

5-hydroxytryptamine receptor 2A (Homo sapiens, UniProt P28223), sequence (P28223 whole entry): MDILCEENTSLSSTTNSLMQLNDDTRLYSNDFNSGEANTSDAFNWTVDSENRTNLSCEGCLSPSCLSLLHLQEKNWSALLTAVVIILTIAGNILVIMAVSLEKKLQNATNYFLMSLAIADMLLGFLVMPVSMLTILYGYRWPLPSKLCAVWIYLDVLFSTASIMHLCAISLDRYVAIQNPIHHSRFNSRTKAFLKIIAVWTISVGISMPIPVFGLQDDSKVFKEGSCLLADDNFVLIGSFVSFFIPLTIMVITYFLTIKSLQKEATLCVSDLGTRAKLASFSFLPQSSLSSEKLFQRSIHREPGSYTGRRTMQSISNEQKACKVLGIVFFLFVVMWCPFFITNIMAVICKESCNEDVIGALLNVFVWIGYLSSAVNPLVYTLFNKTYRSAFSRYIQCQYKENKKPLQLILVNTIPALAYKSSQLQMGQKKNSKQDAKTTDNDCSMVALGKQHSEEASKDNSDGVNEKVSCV
5-hydroxytryptamine receptor 2A (Homo sapiens, UniProt P28223, F340L), sequence (P28223 whole entry F340L): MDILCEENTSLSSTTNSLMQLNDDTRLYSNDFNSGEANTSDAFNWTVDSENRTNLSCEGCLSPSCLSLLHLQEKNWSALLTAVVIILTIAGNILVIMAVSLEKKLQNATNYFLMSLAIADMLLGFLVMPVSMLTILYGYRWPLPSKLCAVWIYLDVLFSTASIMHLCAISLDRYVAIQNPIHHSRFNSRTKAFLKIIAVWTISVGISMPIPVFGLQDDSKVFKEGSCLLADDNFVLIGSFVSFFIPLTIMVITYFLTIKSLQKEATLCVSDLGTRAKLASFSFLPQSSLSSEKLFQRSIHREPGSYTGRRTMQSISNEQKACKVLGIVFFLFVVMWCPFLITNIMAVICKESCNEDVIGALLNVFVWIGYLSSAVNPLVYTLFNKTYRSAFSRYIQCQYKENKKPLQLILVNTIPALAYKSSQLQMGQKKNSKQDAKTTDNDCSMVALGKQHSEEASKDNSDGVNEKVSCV

SMILES	Ki [1]	also measured
NCCc1ccc(CCCc2ccccc2)cc1	60 nM	
CCCCCOc1ccc2c(c1)Cc1ccccc1C2CN (stereo not drawn)	23 nM	
CCCCCCc1cc(OC)c(CC(C)N)cc1OC (stereo not drawn)	2.5 nM	
NCC(c1ccccc1)c1ccc(Br)cc1 (stereo not drawn)	260 nM	Ki [2]: 3.5 nM
NCC1c2ccccc2Cc2ccccc21		Ki (D(2) dopamine receptor): > 10000 nM; Ki [3]: > 10000 nM; Ki [4]: > 10000 nM; Ki [5]: 43 nM
NCCc1ccc(Br)cc1	1770 nM	
CCCCCCc1ccc(CCN)cc1	78 nM	
NCC1c2ccccc2Cc2cc(O)ccc21 (stereo not drawn)	107 nM	
CCCCCCc1ccc(C(CN)c2ccccc2)cc1 (stereo not drawn)	200 nM	
NCC1c2ccccc2Cc2cc(CCCc3ccccc3)ccc21 (stereo not drawn)	3.2 nM	
COc1cc(CC(C)N)c(OC)cc1CCCc1ccccc1 (stereo not drawn)	10 nM	
COc1cc(CC(C)N)c(OC)cc1O (stereo not drawn)	> 50000 nM	
COc1cc(OC)c(OC)cc1CC(C)N (stereo not drawn)	1200 nM	
NCC1c2ccccc2Cc2cc(Br)ccc21 (stereo not drawn)	1.3 nM	Ki [2]: 1.8 nM; Ki (D(2) dopamine receptor): > 10000 nM; Ki [3]: 1200 nM; Ki [4]: 4490 nM; Ki [5]: 3.3 nM
CCCCCCc1ccc2c(c1)Cc1ccccc1C2CN (stereo not drawn)	7 nM	Ki (D(2) dopamine receptor): 6280 nM; Ki [3]: 490 nM; Ki [4]: 845 nM; Ki [5]: 62 nM
